{
  "source": "patent US20100279941A1",
  "about": "“CD36 MODULATION AND USES THEREOF” (priority 2009, published 2010)",
  "key": {"[1]": {"system": "circulating blood leukocytes", "test": "Opsonized zymosan-stimulated luminol-enhanced whole blood chemiluminescence", "format": "in vivo", "details": "48 hours reperfusion; CD36^+/+ mice; 10-week pretreatment; p<0.05", "description": "Experimental model of IHD: Transient left coronary artery ligation in vivo. Mice were subjected to a transient LCAL surgery as described before, with minor modifications [Tarnayski et al., 2004]. Mice were injected i.p. with buprenorphine (0.05 mg/kg) and placed in an induction chamber with inhalation anesthesia comprised of 3% isoflurane mixed with 100% oxygen. Mice were intubated with a blunt ended 20-gauge catheter into the trachea via the mouth and mechanically ventilated at a tidal volume of 7 ml/kg at 130 respirations/min with a MiniVent™ mouse ventilator (model 845, Harvard Apparatus, Saint-Laurent, QC, Canada). Anesthesia was maintained with 1.5-2% isoflurane and the animals were kept warm using electrical heating pads during the surgical procedure. The chest was opened by a horizontal incision through the skin and muscle layers at the third intercostal space exposing the left side of the heart. […] Visual blanching distal to the coronary occlusion confirmed myocardial ischaemia. Lidocaine (6 mg/kg) was administered i.p. just following occlusion and prior to reperfusion. After 30 minutes, the PE10 tubing was removed allowing reperfusion. […]\nWhole blood chemiluminescence. […] The chemiluminescence signals were recorded using a computer-assisted luminometer (model 500; Chronolog Corp, Havertown, Pa., USA). Chemiluminescence intensities were measured as the peak amplitude in arbitrary units."}, "[2]": {"system": "CD36^+/+ and CD36^−/− mice", "test": "Ventricular and ejection volumes by ECG-gated μPET after transient myocardial ischemia", "format": "in vivo", "details": "EP 80317-treated WT mice vs 0.9% NaCl", "description": "Experimental model of IHD: Transient left coronary artery ligation in vivo. Mice were subjected to a transient LCAL surgery as described before, with minor modifications [Tarnayski et al., 2004]. Mice were injected i.p. with buprenorphine (0.05 mg/kg) and placed in an induction chamber with inhalation anesthesia comprised of 3% isoflurane mixed with 100% oxygen. Mice were intubated with a blunt ended 20-gauge catheter into the trachea via the mouth and mechanically ventilated at a tidal volume of 7 ml/kg at 130 respirations/min with a MiniVent™ mouse ventilator (model 845, Harvard Apparatus, Saint-Laurent, QC, Canada). Anesthesia was maintained with 1.5-2% isoflurane and the animals were kept warm using electrical heating pads during the surgical procedure. The chest was opened by a horizontal incision through the skin and muscle layers at the third intercostal space exposing the left side of the heart. […] Visual blanching distal to the coronary occlusion confirmed myocardial ischaemia. Lidocaine (6 mg/kg) was administered i.p. just following occlusion and prior to reperfusion. After 30 minutes, the PE10 tubing was removed allowing reperfusion. The lungs were reinflated and the chest wound closed layer by layer before extubation. At 6 hours following reperfusion, mice were anesthetized (isoflurane), a blood sample withdrawn, and the heart arrested in diastole by an intravenous injection of 1 M KCl (0.5 mL). Hearts were immediately frozen at −80° C. unless otherwise stated.\nImaging experiments. Imaging experiments were performed with the avalanche photodiode-based small animal PET scanner (μPET) [Lecomte et al., 1996]. Before imaging, the heart position was localized with a Doppler probe (0.64 cm, 9 MHz; Parks Medical Electronics). […]\nImaging Data Analysis. For [^11C]-acetate images, dynamic series of 25 frames each were sorted out whereas 27 frames were used for ^18FDG and ^18FTHA imaging, and were reconstructed and analyzed using multicompartmental analysis [Menard et al., 2009] or the Patlak method for FTHA [Patlak and Blasberg, 1985]. […]"}},
  "data": [
    {"substance": "HAIC-2MeDTrp-DLys-Trp-DPhe-Lys-NH2 [EP 80317]", "values": [
      {"measurement": "reduction of circulating blood leukocyte priming and/or activation", "setting": "[1]", "result": 53, "unit": "%"},
      {"measurement": "increase of end-systolic ventricular volume", "setting": "[2]", "result": 26, "unit": "%"},
      {"measurement": "increase of end-diastolic ventricular volume", "setting": "[2]; p<0.01", "result": 31, "unit": "%"},
      {"measurement": "increase of stroke volume", "setting": "[2]; p<0.01", "result": 33, "unit": "%"}
    ]}
  ]
}
